Read-outs that look alike come from different tables or passages of the source.
Experiments:
[1] = lg P (physical data)
[2] = tested on: Nephotettix cincticeps; experiment: Nephotettix test; format: in vivo, Nephotettix cincticeps (green rice leafhopper); settings: 144 h, after 6d, read-out: Degree of destruction in % after 6d
Experimental: (§1) Solvent: 7 parts by weight of dimethylformamide
(§2) Emulsifier: 1 part by weight of alkylaryl polyglycol ether
(§3) To produce a suitable preparation of active compound, 1 part by weight of active compound is mixed with the stated amount of solvent and the stated amount of emulsifier, and the concentrate is diluted with water to the desired concentration.
Rice seedlings (Oryza sativa) are treated by being dipped into the preparation of active compound of the desired concentration and are infested with larvae of the green rice leafhopper (Nephotettix cincticeps) while the seedlings are still moist.
After the desired period of time, the destruction in % is determined. 100% means that all the leafhoppers have been killed; 0% means that none of the leafhoppers have been killed.

[3] = tested on: Myzus persicae; experiment: Myzus test; format: in vivo, Myzus persicae (green peach aphid); settings: 144 h, read-out: Degree of destruction in % after 6d
Experimental: as §1, §2, §3
Cabbage leaves (Brassica oleracea) which are severely infested with the green peach aphid (Myzus persicae) are treated by being dipped into the preparation of active compound of the desired concentration.
After the desired period of time, the destruction in % is determined. 100% means that all the aphids have been killed; 0% means that none of the aphids have been killed.

[4] = tested on: Plutella maculipennis; experiment: Plutella test; format: in vivo, Plutella maculipennis (diamond-back moth); settings: 72 h, read-out: Degree of destruction in % after 3d
Experimental: as §1, §2, §3
Cabbage leaves (Brassica oleracea) are treated by being dipped into the preparation of active compound of the desired concentration and are infested with caterpillars of the diamond-back moth (Plutella maculipennis) while the leaves are still moist.
After the desired period of time, the destruction in % is determined. 100% means that all the caterpillars have been killed; 0% means that none of the caterpillars have been killed.

[5] = active compound concentration 0.001 %, after 6d
[6] = active compound concentration 0.01 %, after 6d
[7] = active compound concentration 0.01 %, after 3d
[8] = active compound concentration 0.1 %, after 3d

Structure (SMILES) | logP [1] | also measured
COCCOCCNC(=O)OCCCCCCN1CC([N+](=O)[O-])=C2N(Cc3ccc(Cl)nc3)CCN2C1 [Example 46] | 1.47 | –
CC(=O)OCCCN1CC([N+](=O)[O-])=C2N(Cc3ccc(Cl)nc3)CCN2C1 [drawing 136] | – | mortality at 1e-05 % ([2]; active compound concentration 0.00001 %): 100%; mortality at 0.0001 % ([2]; active compound concentration 0.0001 %): 100%; mortality at 0.001 % ([2]; active compound concentration 0.001 %): 100%
CCOC(=O)NCCN1CC([N+](=O)[O-])=C2N(Cc3ccc(Cl)nc3)CCN2C1 [drawing 139] | – | mortality at 0.001 % [3]: 95%; mortality at 0.01 % [3]: 100%
CCOC(=O)NCCN1CC([N+](=O)[O-])=C2N(Cc3ccc(Cl)nc3)CCN2C1 [drawing 124] | – | mortality at 0.01 % [4]: 100%; mortality at 0.1 % [4]: 100%
CNC(=O)OCCCN1CC([N+](=O)[O-])=C2N(Cc3ccc(Cl)nc3)CCN2C1 [drawing 128] | – | mortality at 0.01 % [4]: 100%; mortality at 0.1 % [4]: 100%
CC(C)(C)C(=O)OCCNC(=O)OCCCCN1CC([N+](=O)[O-])=C2N(Cc3ccc(Cl)nc3)CCN2C1 [Example 63] | 1.73 | –
CCOC(=O)NCCCN1CC([N+](=O)[O-])=C2N(Cc3ccc(Cl)nc3)CCN2C1 [drawing 141] | – | mortality at 0.001 % [3]: 99%; mortality at 0.01 % [3]: 100%
O=C(NCCCCCCCl)OCCCN1CC([N+](=O)[O-])=C2N(Cc3ccc(Cl)nc3)CCN2C1 [drawing 143] | – | mortality at 0.001 % [3, 5]: 100%; mortality at 0.01 % [3, 6]: 100%
CC(=O)OCCCN1CC([N+](=O)[O-])=C2N(Cc3ccc(Cl)nc3)CCN2C1 [drawing 129] | – | mortality at 0.01 % [4]: 100%; mortality at 0.1 % [4]: 100%
CC(C)(C)C(=O)OCCNC(=O)OCCCCCN1CC([N+](=O)[O-])=C2N(Cc3ccc(Cl)nc3)CCN2C1 [Example 40] | 1.81 | –
CCOC(=O)NCCCN1CC([N+](=O)[O-])=C2N(Cc3ccc(Cl)nc3)CCN2C1 [drawing 126] | – | mortality at 0.01 % [4]: 100%; mortality at 0.1 % [4]: 100%
CCCCNC(=O)OCCCCCN1CC([N+](=O)[O-])=C2N(Cc3cnc(Cl)s3)CCN2C1 [Example 78] | 1.73 | –
CCOCCOCCNC(=O)OCCN1CC([N+](=O)[O-])=C2N(Cc3ccc(Cl)nc3)CCN2C1 [Example 32] | 1.26 | –
CCCCNC(=O)OCCCN1CC([N+](=O)[O-])=C2N(Cc3ccc(Cl)nc3)CCN2C1 | – | mortality at 0.001 % [3, 5]: 98%; mortality at 0.01 % [3, 6]: 100%
CC(C)(C)C(=O)OCCNC(=O)OCCCCCCN1CC([N+](=O)[O-])=C2N(Cc3ccc(Cl)nc3)CCN2C1 [Example 52] | 1.98 | –
CC(COC(C)(C)C)NC(=O)OCCN1CC([N+](=O)[O-])=C2N(Cc3ccc(Cl)nc3)CCN2C1 (stereo not shown) [Example 33] | 2.26 | –
O=[N+]([O-])C1=C2N(Cc3cnc(Cl)s3)CCN2CN(CCCCCCO)C1 [II-15] | 0.94 | –
COCCNC(=O)OCCCN1CC([N+](=O)[O-])=C2N(Cc3ccc(Cl)nc3)CCN2C1 [Example 31] | 1.11 | –

Structure (SMILES) | logP [1] | also measured
CCOCCOCCNC(=O)OCCCCN1CC([N+](=O)[O-])=C2N(Cc3ccc(Cl)nc3)CCN2C1 [Example 59] | 1.36 | –
O=C(NCCN1CC([N+](=O)[O-])=C2N(Cc3ccc(Cl)nc3)CCN2C1)OCc1ccccc1 [drawing 127] | – | mortality at 0.01 % [4, 7]: 100%; mortality at 0.1 % [4, 8]: 100%
CC(C)(C)OC(=O)NCCN1CC([N+](=O)[O-])=C2N(Cc3ccc(Cl)nc3)CCN2C1 [drawing 138] | – | mortality at 0.001 % [3]: 100%; mortality at 0.01 % [3]: 100%
O=C(NCCCCCCCl)OCCCN1CC([N+](=O)[O-])=C2N(Cc3ccc(Cl)nc3)CCN2C1 [drawing 132] | – | mortality at 0.01 % [4, 7]: 100%; mortality at 0.1 % [4, 8]: 100%
COCCOCCNC(=O)OCCCCCN1CC([N+](=O)[O-])=C2N(Cc3ccc(Cl)nc3)CCN2C1 [Example 34] | 1.28 | –
O=[N+]([O-])C1=C2N(Cc3ccc(Cl)nc3)CCCN2CN(CCOCC(F)(F)F)C1 [drawing 137, reference compound] | – | mortality at 0.001 % [3]: 0%; mortality at 0.01 % [3]: 80%
CC(=O)OCCN1CC([N+](=O)[O-])=C2N(Cc3ccc(Cl)nc3)CCN2C1 | – | mortality at 0.01 % [4]: 100%; mortality at 0.1 % [4]: 100%
CC(C)(C)NC(=O)OCCCCCCN1CC([N+](=O)[O-])=C2N(Cc3cnc(Cl)s3)CCN2C1 [Example 79] | 1.9 | –
CCOCCOCCNC(=O)OCCCCCCN1CC([N+](=O)[O-])=C2N(Cc3ccc(Cl)nc3)CCN2C1 [Example 47] | 1.63 | –
CC(=O)NCCN1CC([N+](=O)[O-])=C2N(Cc3ccc(Cl)nc3)CCN2C1 [drawing 140] | – | mortality at 0.001 % [3]: 100%; mortality at 0.01 % [3]: 100%
CCOCCOCCNC(=O)OCCCCCN1CC([N+](=O)[O-])=C2N(Cc3ccc(Cl)nc3)CCN2C1 [Example 35] | 1.44 | –
CC(C)(C)CNC(=O)OCCCN1CC([N+](=O)[O-])=C2N(Cc3ccc(Cl)nc3)CCN2C1 | – | mortality at 0.01 % [4, 7]: 100%; mortality at 0.1 % [4, 8]: 100%
CCCCNC(=O)OC(C)CN1CC([N+](=O)[O-])=C2N(Cc3ccc(Cl)nc3)CCN2C1 (stereo not shown) [Example 75] | 1.63 | –
COCCOCCNC(=O)OCCCCN1CC([N+](=O)[O-])=C2N(Cc3ccc(Cl)nc3)CCN2C1 [Example 58] | 1.2 | –
CC(=O)NCCN1CC([N+](=O)[O-])=C2N(Cc3ccc(Cl)nc3)CCN2C1 [drawing 125] | – | mortality at 0.01 % [4]: 100%; mortality at 0.1 % [4]: 100%
CC(C)(C)OC(=O)NCCN1CC([N+](=O)[O-])=C2N(Cc3ccc(Cl)nc3)CCN2C1 [drawing 123] | – | mortality at 0.01 % [4]: 100%; mortality at 0.1 % [4]: 100%
O=[N+]([O-])C1=C2N(Cc3cnc(Cl)s3)CCN2CN(CCCCCO)C1 [II-16] | 0.71 | –

More lines, main results first:

logP [1] | Structure (SMILES) | also measured
2.74 | O=C(Nc1ccc(SC(F)(F)F)cc1)OCCCCCN1CC([N+](=O)[O-])=C2N(Cc3ccc(Cl)nc3)CCN2C1 [Example 44] | –
1.75 | CC(C)(C)CNC(=O)OCCCCN1CC([N+](=O)[O-])=C2N(Cc3ccc(Cl)nc3)CCN2C1 [Example 66] | –
1.47 | CC(=O)OCCNC(=O)OCCCCCCN1CC([N+](=O)[O-])=C2N(Cc3ccc(Cl)nc3)CCN2C1 [Example 51] | –
2.05 | CC(C)(C)CNC(=O)OCCCCCCN1CC([N+](=O)[O-])=C2N(Cc3ccc(Cl)nc3)CCN2C1 [Example 55] | –
1.72 | O=C(Nc1ccccc1)OCCCCN1CC([N+](=O)[O-])=C2N(Cc3ccc(Cl)nc3)CCN2C1 [Example 61] | –
2.71 | O=C(Nc1ccc(SC(F)(F)F)cc1)OCCCCCCN1CC([N+](=O)[O-])=C2N(Cc3ccc(Cl)nc3)CCN2C1 [Example 56] | –
1.79 | O=C(Nc1ccccc1)OCCCCCN1CC([N+](=O)[O-])=C2N(Cc3ccc(Cl)nc3)CCN2C1 [Example 38] | –
2.01 | O=C(Nc1ccccc1)OCCCCCCN1CC([N+](=O)[O-])=C2N(Cc3ccc(Cl)nc3)CCN2C1 [Example 50] | –
2.27 | O=C(Nc1ccc(Cl)cc1)OCCCCCCN1CC([N+](=O)[O-])=C2N(Cc3ccc(Cl)nc3)CCN2C1 [Example 53] | –
2.51 | O=C(Nc1ccc(S(=O)(=O)C(F)(F)F)cc1)OCCCCCCN1CC([N+](=O)[O-])=C2N(Cc3ccc(Cl)nc3)CCN2C1 [Example 49] | –
1.22 | CC(=O)OCCNC(=O)OCCCCN1CC([N+](=O)[O-])=C2N(Cc3ccc(Cl)nc3)CCN2C1 [Example 62] | –
1.24 | COCCNC(=O)OCCCCCN1CC([N+](=O)[O-])=C2N(Cc3ccc(Cl)nc3)CCN2C1 [Example 36] | –
1.44 | COCCNC(=O)OCCCCCCN1CC([N+](=O)[O-])=C2N(Cc3ccc(Cl)nc3)CCN2C1 [Example 48] | –
0.82 | CC(=O)OCCNC(=O)OCCCCCN1CC([N+](=O)[O-])=C2N(Cc3ccc(Cl)nc3)CCN2C1 [Example 39] | –
1.6 | COC(C)(C)CNC(=O)OCCCCCCN1CC([N+](=O)[O-])=C2N(Cc3ccc(Cl)nc3)CCN2C1 [Example 57] | –
1.53 | O=C(Nc1ccc(Cl)c(Cl)c1)OCCCCN1CC([N+](=O)[O-])=C2N(Cc3ccc(Cl)nc3)CCN2C1 [Example 65] | –
2.29 | O=C(Nc1ccc(S(=O)(=O)C(F)(F)F)cc1)OCCCCCN1CC([N+](=O)[O-])=C2N(Cc3ccc(Cl)nc3)CCN2C1 [Example 37] | –
2.59 | O=C(Nc1ccc(Cl)c(Cl)c1)OCCCCCCN1CC([N+](=O)[O-])=C2N(Cc3ccc(Cl)nc3)CCN2C1 [Example 54] | –
2.22 | O=C(Nc1ccc(S(=O)(=O)C(F)(F)F)cc1)OCCCCN1CC([N+](=O)[O-])=C2N(Cc3ccc(Cl)nc3)CCN2C1 [Example 60] | –
1.56 | COC(C)(C)CNC(=O)OCCCCCN1CC([N+](=O)[O-])=C2N(Cc3ccc(Cl)nc3)CCN2C1 [Example 45] | –
2.01 | CC(C)(C)CNC(=O)OCCCCCN1CC([N+](=O)[O-])=C2N(Cc3ccc(Cl)nc3)CCN2C1 [Example 43] | –
2.09 | O=C(Nc1ccc(Cl)cc1)OCCCCCN1CC([N+](=O)[O-])=C2N(Cc3ccc(Cl)nc3)CCN2C1 [Example 41] | –

Source: patent US6054459A, “Substituted 1,2,3,4-tetrahydro-5-nitro-pyrimidines” (priority 1994, dated 2000)
